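Test compounds were applied to cells in 96-well plates for 48 hours at 5 doses. GI50 is the concentration that inhibits growth by half.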 Active and inactive are the calls of the source. Rule as the data show it: active = GI50 up to about 1.1 µM and inactive = higher.
Experiments:
Experiment in all cases: NCI tumour cell line growth inhibition, 48 h
786-0 = tested on: 786-0
CCRF-CEM = tested on: CCRF-CEM
DU-145 = tested on: DU-145
HL-60 = tested on: HL-60
HOP-62 = tested on: HOP-62
Hs-578T = tested on: Hs-578T
IGROV-1 = tested on: IGROV-1
NCI-H23 = tested on: NCI-H23
NCI-H522 = tested on: NCI-H522
OVCAR-8 = tested on: OVCAR-8
PC-3 = tested on: PC-3
SF-539 = tested on: SF-539
SK-MEL-28 = tested on: SK-MEL-28
SK-OV-3 = tested on: SK-OV-3
SN12C = tested on: SN12C
SNB-75 = tested on: SNB-75
TK-10 = tested on: TK-10
UACC-257 = tested on: UACC-257
UO-31 = tested on: UO-31

Structure (SMILES) | GI50 (786-0) | GI50 (CCRF-CEM) | GI50 (DU-145) | GI50 (HL-60) | GI50 (HOP-62) | GI50 (Hs-578T) | GI50 (IGROV-1) | GI50 (NCI-H23) | GI50 (NCI-H522) | GI50 (OVCAR-8) | GI50 (PC-3) | GI50 (SF-539) | GI50 (SK-MEL-28) | GI50 (SK-OV-3) | GI50 (SN12C) | GI50 (SNB-75) | GI50 (TK-10) | GI50 (UACC-257) | GI50 (UO-31)
Cc1c2ncccc2cc2oc3ccccc3c(=O)c12 | > 100 µM (inactive) | 16 µM (inactive) | 29.2 µM (inactive) | 34 µM (inactive) | 30.9 µM (inactive) | > 100 µM (inactive) | 4.63 µM (inactive) | 47.9 µM (inactive) | 31.5 µM (inactive) | 80.2 µM (inactive) | 75.7 µM (inactive) | > 100 µM (inactive) | > 100 µM (inactive) | > 100 µM (inactive) | 24 µM (inactive) | > 100 µM (inactive) | 91.4 µM (inactive) | 58.5 µM (inactive) | 7.06 µM (inactive)
CCCCCCc1cc2cc(-c3cn4ccsc4n3)c(=O)oc2cc1O | > 56.9 µM (inactive) | > 68.5 µM (inactive) | > 79.1 µM (inactive) | > 100 µM (inactive) | 64.9 µM (inactive) | 20.4 µM (inactive) | > 100 µM (inactive) | > 82 µM (inactive) | 29.2 µM (inactive) | > 53.3 µM (inactive) | > 100 µM (inactive) | 64.3 µM (inactive) | > 25.4 µM (inactive) | > 100 µM (inactive) | > 100 µM (inactive) | 8.15 µM (inactive) | > 95.3 µM (inactive) | > 24.5 µM (inactive) | > 100 µM (inactive)
C#CCSc1cnc2ccccc2c1Sc1c[nH]c2ccccc2c1=O | 12.4 µM (inactive) | > 100 µM (inactive) | 51.3 µM (inactive) | 16.6 µM (inactive) | 26.5 µM (inactive) | 48.2 µM (inactive) | 3.29 µM (inactive) | 15.4 µM (inactive) | 6.58 µM (inactive) | 24.7 µM (inactive) | 17.6 µM (inactive) | 28.6 µM (inactive) | 34.8 µM (inactive) | 30.3 µM (inactive) | 12.8 µM (inactive) | 15.9 µM (inactive) | 40.2 µM (inactive) | 17.6 µM (inactive) | 2.14 µM (inactive)
CC1OC(OC2C(O[C@@H]3C[C@@H]4CC[C@@H]5[C@H](CC[C@]6(C)C7C(C[C@@H]56)O[C@]5(CC[C@@H](C)CO5)[C@H]7C)[C@@]4(C)C[C@H]3O)OC(CO)C(O)C2O)C(O)C(O)C1O (stereo partly drawn) | 1.82 µM (inactive) | 1.93 µM (inactive) | 1.84 µM (inactive) | 2.06 µM (inactive) | 2 µM (inactive) | 2.54 µM (inactive) | 1.73 µM (inactive) | 1.82 µM (inactive) | 1.89 µM (inactive) | 1.86 µM (inactive) | 1.76 µM (inactive) | 1.64 µM (inactive) | 1.85 µM (inactive) | 1.89 µM (inactive) | 1.71 µM (inactive) | 2.24 µM (inactive) | 1.76 µM (inactive) | 1.86 µM (inactive) | 1.78 µM (inactive)
COC(=O)CNC(=O)CCC(C)[C@H]1CCC2C3C(C[C@H](OC(C)=O)[C@@]21C)[C@@]1(C)CCC2(C[C@H]1C[C@H]3OC(C)=O)OOC1(CCCCC1)OO2 (stereo partly drawn) | 2.04 µM (inactive) | 2.1 µM (inactive) | 2.34 µM (inactive) | 2.36 µM (inactive) | 0.579 µM (active) | 2.72 µM (inactive) | 1.4 µM (inactive) | 1.91 µM (inactive) | 1.48 µM (inactive) | 1.82 µM (inactive) | 2.49 µM (inactive) | 1.95 µM (inactive) | 9.29 µM (inactive) | 12.4 µM (inactive) | 1.59 µM (inactive) | 2.23 µM (inactive) | 11.2 µM (inactive) | 6.31 µM (inactive) | 1.84 µM (inactive)
COc1cccc(-c2cc(=O)c3ccccc3o2)c1N | 71 µM (inactive) | > 100 µM (inactive) | > 100 µM (inactive) | 6.76 µM (inactive) | 18.3 µM (inactive) | 71.9 µM (inactive) | 87.5 µM (inactive) | 72.9 µM (inactive) | 27.9 µM (inactive) | 53 µM (inactive) | > 23.6 µM (inactive) | 63.5 µM (inactive) | 10.1 µM (inactive) | 15 µM (inactive) | > 100 µM (inactive) | 51.6 µM (inactive) | > 100 µM (inactive) | 36.6 µM (inactive) | 36.3 µM (inactive)
O=[N+]([O-])c1ccc2nc(Nc3ccccc3)c(Nc3ccccc3)nc2c1 | 1.49 µM (inactive) | 0.875 µM (active) | 1.77 µM (inactive) | 9.31 µM (inactive) | 1.19 µM (inactive) | 2.65 µM (inactive) | 1.58 µM (inactive) | 1.17 µM (inactive) | 0.369 µM (active) | 1.03 µM (active) | 0.847 µM (active) | 1.58 µM (inactive) | 2.45 µM (inactive) | 0.787 µM (active) | 1.18 µM (inactive) | 2 µM (inactive) | 2.83 µM (inactive) | 2.15 µM (inactive) | 1.21 µM (inactive)
